Measured values taken from patent US20100009934A1, “BETA ADRENERGIC RECEPTOR AGONISTS FOR THE TREATMENT OF B-CELL PROLIFERATIVE DISORDERS” (CombinatoRx, Incorporated, priority 2008, published 2010).
Values joined by “and” are separate entries in the source; they are usually repeats but may differ in a detail not shown here. Equal entries are not always repeated. Where two headings read alike, the source gives them in different places.

What was measured:
[1] = system: Human Multiple Myeloma Cells (MM.1S) cultured in the presence of BAR agonist for one month; assay: Antiproliferative activity on MM.1S cultured one month in the presence of salmeterol or salbutamol; assay type: cell-based; conditions: Homo sapiens, MM1.S, […] dexamethasone; cells cultured one month in salmeterol (64 nM), Table 48; read-out: inhibition of proliferation
From the text: A recurrent problem in cancer therapy is that prolonged exposure of tumor cells to chemotherapeutic agents can generate cells resistant to agents that initially have antiproliferative or cell killing activity. […] Cells cultured for one month in the presence of BAR agonist were washed to remove drug and put into 384 well plates for 9×9 dose matrix combination screening with BAR agonists and dexamethasone.

[2] = system: MM.1S cells; assay: Annexin V/PI FACS assay of control MM.1S and cells cultured one month with salmeterol or salbutamol; assay type: cell-based, human
Experimental: Forty eight hours later, the percent of cells positive for Annexin V and propidium iodide (PI) was determined using FACS (FIG. 5).

[3] = system: human multiple myeloma xenografts (MM1S); assay: MM.1S xenograft model in SCID mice; assay type: in vivo, mouse; conditions: Dex 1 mg/kg or salmeterol 10 mg/kg, subcutaneous daily
Experimental: The human multiple myeloma cell line MM1S was injected subcutaneously into the flanks of SCID mice. Five days following the injection of MM1S cells, animals were randomized into the following four treatment groups (n=6-7) based on tumor size.
Group 1—Vehicle (90% PBS+10% EtOH)
The prepared test, positive, and negative control substances were administered via subcutaneous injection daily for up to 85 Days. During the treatment period, tumor volume and animal body weights were measured 3 times per week (Monday, Wednesday and Friday). The animals were removed from the study if there was overall poor body condition, tumor volume above 3000 mm^3, body weight loss greater than or equal to 20% or ulcerated tumors.
The slope of the tumor volume growth of each animal was calculated from the initial study day until the day each animal was removed from the study. From these slopes the mean change in tumor volume per study day was calculated.

[4] = system: Human Multiple Myeloma Cells (MM.1S)
[5] = system: Human Multiple Myeloma Cells (ANBL-6)
[6] = system: Human Multiple Myeloma Cells (MM.1S); conditions: Salmeterol 0 μM (single agent), DEX (μM): 0.15, 0.076, 0.038, 0.019, 0.0096
[7] = system: Human Multiple Myeloma Cells (MM.1S); assay: cells; conditions: MM1.S
[8] = system: Human Multiple Myeloma Cells (MM.1S); assay: Anti-proliferation assay (ATPLite, 72 hours), MM.1S
[9] = system: multiple myeloma tumor cells from patients; assay: MTT cell viability assay, multiple myeloma patient tumor cells; conditions: patient 1 tumor cells, 48 hours, MTT; Salmeterol 0 nM (single agent); DEX (μM): 4.0, 2.0, 1.0, 0.5, 0.25, 0.125, 0.0625
From the text: Tumor cells were obtained via bone marrow aspirates and affinity selected using CD138-linked magnetic beads.

C[C@@H]1C[C@H]2[C@@H]3CCC4=CC(=O)C=C[C@]4(C)[C@@]3(F)[C@@H](O)C[C@]2(C)[C@@]1(O)C(=O)CO [dexamethasone]
inhibition at […] [1]: 51% | Annexin V/PI+ cells ([2]; cells exposed to salmeterol for one month, 8 nM dexamethasone, 48 hours): 47% | Annexin V/PI+ cells ([2]; cells exposed to salmeterol for one month, 80 nM dexamethasone, 48 hours): 65% | Annexin V/PI+ cells ([2]; control cells, 8 nM dexamethasone, 48 hours (FIG. 5)): 8% | Annexin V/PI+ cells ([2]; control cells, 80 nM dexamethasone, 48 hours (FIG. 5)): 45% | study day by which all animals of the group were removed [3]: ≤ 66 study day | inhibition [4]: 39% | inhibition [5]: 6.13% | percent inhibition of cell proliferation ([6]; +10 ng/ml IL-6): 26% | percent inhibition of cell proliferation ([6]; no IL-6): 45% and 44% and 32% and 27% | inhibition at 0.15 µM ([7]; read-out: inhibition of proliferation, 0.15 μM dexamethasone, 10 ng/ml IL-6 (Table 53)): 24% | inhibition at 0.15 µM ([7]; read-out: inhibition of proliferation, 0.15 μM dexamethasone, no IL-6 (Table 52)): 52% | percent inhibition of cell proliferation ([8]; Clenbuterol 0 μM (single agent), Dexamethasone (μM): 0.15, 0.076, 0.038, 0.019, 0.0095, no ICI 118,551): 47% and 38% and 70% and 63% and 56% | percent inhibition of cell proliferation ([8]; naïve MM.1S, Salbutamol 0 μM (single agent), DEX (μM) by row: r8 2.0, r9 0.666, r10 0.23, r11 0.074, r12 0.024, r13 0.0082, r14 0.00274, r15 0.0009): 75% | Reduction in Cell Viability [9]: 50% and 56% and 53% and 46% and 47%
